{"source": "patent US20260191749A1", "about": "“COMPOSITION AND PROCESS OF MAKING BIO-BASED UPCYCLED OILS IN FLOW REACTORS” (RiKarbon, Inc., priority 2022, published 2026)", "assay_type_in_all_cases": "physicochemical", "key": {"Viscosity, ASTM D445": {"experiment": "Viscosity, ASTM D445", "experimental": "(§1) Specifications of Product. Key specifications of RKBA-14, RKBA17, RKBA-22 and RKBA28/33 products were determined by various ASTM methods."}, "[1]": {"experiment": "Freezing point, ASTM S2386", "experimental": "as §1"}, "Pour point, ASTM D6749": {"experiment": "Pour point, ASTM D6749", "settings": "neat oil", "experimental": "as §1"}, "[2]": {"experiment": "Boiling point, ASTM D1120, ASTM D6352", "experimental": "as §1"}, "Density, ASTM D1209": {"experiment": "Density, ASTM D1209", "experimental": "as §1"}, "Flash point, ASTM D93": {"experiment": "Flash point, ASTM D93", "experimental": "as §1"}, "RI of upcycled oils": {"experiment": "RI of upcycled oils", "experimental": "as §1"}, "[3]": {"experiment": "I2 number, USP-NF-2022, issue 1", "experimental": "as §1"}}}
{"smiles": "CCCCCCCCCCCC(CCCCC)CCCCC", "note": "[RKBA-22]", "values": [{"measurement": "Viscosity at 20° C.", "setting": "Viscosity, ASTM D445; 20° C.", "result": 11.35, "unit": "cSt"}, {"measurement": "Viscosity at 40° C.", "setting": "Viscosity, ASTM D445", "result": 6.31, "unit": "cSt"}, {"measurement": "Viscosity at 100° C.", "setting": "Viscosity, ASTM D445; 100° C.", "result": 1.96, "unit": "cSt"}, {"measurement": "Freezing point", "setting": "[1]", "result": "−10.5 ± −4", "unit": "°C"}, {"measurement": "Pour Point", "setting": "Pour point, ASTM D6749", "result": "−21", "unit": "°C"}, {"measurement": "Boiling point", "setting": "[2]", "result": "319 ± 5", "unit": "°C"}, {"measurement": "Density", "setting": "Density, ASTM D1209; at 25° C.", "result": 0.8049, "unit": "g/mL"}, {"measurement": "Flash point", "setting": "Flash point, ASTM D93", "result": "153 ± 8", "unit": "° ° C."}]}
{"smiles": "CCCCCCC(CCCCC)CCCCC", "note": "[RKBA-17]", "values": [{"measurement": "Viscosity at 40° C.", "setting": "Viscosity, ASTM D445", "result": 3.42, "unit": "cSt"}, {"measurement": "RI", "setting": "RI of upcycled oils", "result": 1.4}, {"measurement": "Boiling point", "setting": "[2]", "result": "288 ± 12", "unit": "°C"}, {"measurement": "Density", "setting": "Density, ASTM D1209; at 60º F", "result": 0.7895, "unit": "g/mL"}, {"measurement": "Flash point", "setting": "Flash point, ASTM D93", "result": "121 ± 13", "unit": "° ° C."}, {"measurement": "12 number", "setting": "[3]", "result": "<0.3", "unit": "g/ g/100 g"}]}
